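Following 48 hours of exposure in 96-well plates, responses at five concentrations were used to interpolate endpoints linearly. GI50 marks 50% less growth.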 Calls of active or inactive are those of the source. Cut-off read from the data, not from the text of the source: active = GI50 up to about 1.1 µM and inactive = higher.
Tests used:
Experiment in all cases: DTP human tumour cell line panel, 48 h
MCF7 = test system: MCF7
NCI-H460 = test system: NCI-H460
OVCAR-3 = test system: OVCAR-3
SF-539 = test system: SF-539
LOX IMVI = test system: LOX IMVI
CCRF-CEM = test system: CCRF-CEM
786-0 = test system: 786-0
MDA-MB-435 = test system: MDA-MB-435
A498 = test system: A498
HCT-15 = test system: HCT-15
OVCAR-4 = test system: OVCAR-4
SF-295 = test system: SF-295
K562 = test system: K562
MDA-MB-231 = test system: MDA-MB-231
HL-60 = test system: HL-60
NCI/ADR-RES = test system: NCI/ADR-RES
HT-29 = test system: HT-29
SNB-19 = test system: SNB-19
EKVX = test system: EKVX
RXF 393 = test system: RXF 393

SMILES	GI50 (MCF7)	GI50 (NCI-H460)	GI50 (OVCAR-3)	GI50 (SF-539)	GI50 (LOX IMVI)	GI50 (CCRF-CEM)	GI50 (786-0)	GI50 (MDA-MB-435)	GI50 (A498)	GI50 (HCT-15)	GI50 (OVCAR-4)	GI50 (SF-295)	GI50 (K562)	GI50 (MDA-MB-231)	GI50 (HL-60)	GI50 (NCI/ADR-RES)	GI50 (HT-29)	GI50 (SNB-19)	GI50 (EKVX)	GI50 (RXF 393)
Cn1cc2c3ccccc3nc-2c2ccccc21 [ISOCRYPTOLEPINE]	2.67 µM (inactive)	1.44 µM (inactive)	2.36 µM (inactive)	1.72 µM (inactive)	1.77 µM (inactive)	1.45 µM (inactive)	2.1 µM (inactive)	2.39 µM (inactive)	1.74 µM (inactive)	1.97 µM	1.92 µM (inactive)	2.78 µM (inactive)	1.94 µM (inactive)	2.35 µM (inactive)	2.04 µM (inactive)	1.72 µM (inactive)	1.29 µM (inactive)	2.96 µM (inactive)		
COc1cc2c(cc1OC)C1C=NC(C(=O)O)(C2)c2ccccc21 (centres undefined)		> 100 µM (inactive)	> 100 µM (inactive)	> 100 µM (inactive)	> 100 µM (inactive)	52.5 µM (inactive)	> 100 µM (inactive)		> 100 µM (inactive)	> 100 µM	> 100 µM (inactive)	> 100 µM (inactive)	23 µM (inactive)		26.4 µM (inactive)		> 100 µM (inactive)	> 100 µM (inactive)	> 100 µM (inactive)	> 100 µM (inactive)
C[n+]1c(-c2ccc(/C=N/NC(=O)C(=O)N/N=C/c3ccc(-c4cn5ccsc5[n+]4C)cc3)cc2)cn2ccsc21	> 100 µM (inactive)	> 100 µM (inactive)		> 100 µM (inactive)		> 100 µM (inactive)	> 100 µM (inactive)	48.2 µM (inactive)		> 100 µM	> 100 µM (inactive)	53.5 µM (inactive)	> 100 µM (inactive)	> 100 µM (inactive)	> 100 µM (inactive)	> 100 µM (inactive)	> 100 µM (inactive)	> 100 µM (inactive)	> 100 µM (inactive)	
Cc1ccc(C2=C(Cl)C(=O)C(c3ccc(C)cc3)=C(Cl)C2=O)cc1	> 100 µM (inactive)	> 100 µM (inactive)	> 100 µM (inactive)	> 100 µM (inactive)	> 100 µM (inactive)	83.4 µM (inactive)	> 100 µM (inactive)	> 100 µM (inactive)	> 100 µM (inactive)	> 100 µM	> 100 µM (inactive)	> 100 µM (inactive)	> 100 µM (inactive)		> 100 µM (inactive)	> 100 µM (inactive)	> 100 µM (inactive)	> 100 µM (inactive)	> 100 µM (inactive)	> 100 µM (inactive)
